In US5703118A, “Use of benzopyran derivatives for the treatment of pathologies associated with the NA^+ -independent CI-/HCO3 -exchanger” (Adir et Compagnie, priority 1995, dated 1997):
Where two headings read alike, the source gives them in different places.

Assays:
[1] = test system: Na^+ -independent Cl^- /HCO3^- exchanger; assay: Activity of the Na^+ -independent Cl^- /HCO3^- exchanger in ventricular cardiomyocytes isolated from rat heart (acetate method, carboxy-SNARF-1 intracellular pH); type: cell-based
Method: Example A: MEASUREMENT OF THE ACTIVITY OF THE Na^+ -INDEPENDENT Cl^- /HCO3^- EXCHANGER IN VENTRICULAR CARDIOMYOCYTES ISOLATED FROM RAT HEART
The study is performed on ventricular cardiomyocytes isolated from rat heart by enzymatic dissociation. The intracellular pH of a single cell is measured by the fluorescent label carboxy-SNARF-1 whose fluorescence depends on its state of protonation (Buckler K. J. et al. Pflugers Archiv, 1990, 417: 234-239). The cells are "charged" beforehand with SNARF-1-AM (esterified and permeating form of the label) and the intracellular fluorescence of SNARF is monitored using an inverted microscope equipped with epifluorescence. The measurements are converted into pH using a calibration file.
The activity of the Na^+ -independent Cl^- /HCO3^- exchanger is studied after activation by induction of an alkaline charge of the cells by the acetate method (Roos A et al. Physiol. Rev., 1981, 61: 296-434). […]
The compounds according to the invention are used at concentrations of 10^-11 to 10^-5 M and their IC50 (50% inhibitory concentration) is calculated for each ion transporter. In parallel, the effects of the molecules on the intracellular intrinsic buffer power and the intracellular resting pH are determined.

isolated rat hearts = assay: Cardiovascular study: arrhythmias in isolated rat hearts (Langendorff infusion), ischaemia-reinfusion; conditions: for inhibition at 0.1 µM: Rattus norvegicus, n=6, preliminary
Method: Example F: CARDIOVASCULAR STUDY
The compounds are tested at a concentration of 0.1 μM in a solution of DMSO in Krebs buffer (0.01% v/v) on arrhythmias. 6 isolated rat hearts were used for the test compound and 6 for the control. An infusion by the Langendorff method is performed (Rees S. A. and Curtis M.J.J. Card. Pharmacol. 1995, 26: 280-288).

Cc1cc(C)c(NC(=O)C2(C)CCc3c(C)c(O)c(C)c(C)c3O2)cc1C (centres unmarked) [Example 14, N-(2,4,5-trimethylphenyl)-(6-hydroxy-3,4-dihydro-2,5,7,8-tetramethyl-2H[1]-benzopyran-2-yl)carboxamide]
selectivity of inhibition of the Na^+ -independent Cl^- /HCO3^- exchanger ([1]; Na^+ /H^+ exchange and Na^+ /HCO3^- cotransport also studied (ammonium method)): selective inhibitor | IC50 ([1]; activation by alkaline charge (acetate method), 10^-11 to 10^-5 M, read-out: IC50 (50% inhibitory concentration), Na^+ -independent Cl^- /HCO3^- exchanger): ~0.1 nM | activity on the cardiovascular system (isolated rat hearts; 0.1 μM, isolated rat heart): possesses cardioprotective activity | inhibition at 0.1 µM (isolated rat hearts; in comparison with control hearts, read-out: reduction of the incidence of ventricular fibrillation observed during the ischaemia): 50% | inhibition at 0.1 µM (isolated rat hearts; read-out: reduction of the incidence of ventricular fibrillation observed during reinfusion): 50%
